{
  "source": "patent US20240301409A1",
  "about": "“Chemically Modified Small Activating RNA” (RACTIGEN THERAPEUTICS, priority 2021, published 2024)",
  "key": {"[1]": {"tested_on": "p21 gene", "test": "p21 mRNA expression by RT-qPCR in Ku-7-LG cells", "assay_type": "cell-based, human", "settings": "10 nM", "procedure": "(§1) Ku-7-LG and T24 cells were transfected with the indicated saRNA at a final concentration of 10 nM for 3 days. After transfection, the RNA was extracted with the Qiagen RNeasy kit. After reverse transcription, the ABI 7500 fast real-time PCR system was used for qPCR amplification. The GAPDH gene was amplified as an internal reference. […] Dashed line indicates duplex Rag1-40 with no chemical modification in comparison, and the values above the line indicate stronger activity. The control was blank transfection without oligonucleotide. dsCon2 is transfected with a double-stranded scramble RNA. The value of the ordinate represents the mean±SD of 2 repeated treatments.\n(§2) The control and dsCon2 were blank transfection and scramble dsRNA transfection, respectively. The values in the ordinate represent the mean±SD of 2 repeated treatments.\n(§3) Human bladder cancer cells Ku-7-LG (ATCC), J82 (ATCC) and T24 (ATCC) were cultured in McCoy medium (Gibco) comprising 10% calf serum (Sigma-Aldrich) and 1% penicillin/Streptomycin (Gibco). Cells were cultured at 37° C. under 5% CO2. Ku-7-LG, J82 and T24 cells were plated into 12-well plates at 10×10^4 cells per well, transfected with the small RNA at a concentration of 10 nM (unless otherwise specified) for three days, using RNAiMax (Invitrogen, Carlsbad, CA) according to the manufacturer's instructions. Two replicate wells were set for each treatment.\n(§4) After transfection, the medium was discarded and to each well 500 μl cell lysate was added and incubated at room temperature for 5 minutes. RNA was extracted with the Qiagen RNeasy kit, and after reverse transcription, qPCR analysis was performed on the ABI 7500 Fast Real-time PCR system (Applied Biosystems). Each sample was amplified in 3 replicate wells.\n(§5) The PCR reaction conditions are: 95° C. for 30 seconds, 95° C. for 5 seconds, 60° C. for 30 seconds, and 40 cycles of amplification. The GAPDH gene was amplified as an internal reference at the same time. p21 was amplified with the p21F1/R1 primer pair, and the specific sequences of the amplification primers are shown in Table 1.\n(§6) In order to calculate the expression value (Erel) of p21 (target gene) of a saRNA transfection sample relative to the control treatment, Formula 1 is used to input the Ct values of the target gene and the internal reference gene for calculation.\n(§7) wherein, CtTm is the Ct value of the target gene from the control treatment sample; CtTs is the Ct value of the target gene from the saRNA treated sample; CtRm is the Ct value of the internal reference gene from the control treatment sample; and CtRs is the Ct value of the internal reference gene from the saRNA treated sample.\n(§8) The main purpose of introducing chemical modifications to regulatory oligonucleotides of a gene is to improve their pharmaceutical properties, including enhancing in vivo stability and mitigating off-target effects (e.g., sequence-dependent targeting of unrelated genes, sequence-dependent or independent immune stimulation), while maintaining their gene regulatory capacity (gene knockdown or activation). To assess the effect of chemical modification on the RNAa activity of saRNA on the p21 gene, 10 nM unmodified (Rag1-40) and modified (Rag1-40-1 to Rag1-40-34) duplexes were transfected into Ku-7-LG and T24 cells, respectively. After 72 hours, the mRNA expression level of p21 was assessed by RT-qPCR. All duplexes induced p21 mRNA expression in all […] at least double that of the control.\n(§9) In order to further evaluate the expression level of p21 mRNA after the different durations of treatment by the chemically modified saRNA duplexes, two saRNAs (RAG1-40-31 and RAG1-40-53) were randomly selected from the above chemically modified saRNA duplexes for detection. RAG1-40-31 and RAG1-40-53 were transfected into Ku-7-LG and T24 cells at a final concentration of 10 nM, for 1, 2, 3, 4, 7 and 9 days, respectively. Each treatment was set up in duplicate. […]"}, "[2]": {"tested_on": "Ku-7-LG cells", "test": "Cell cycle detection by flow cytometry in Ku-7-LG cells", "assay_type": "cell-based, human", "settings": "48 hours", "procedure": "RAG1-40-31 and RAG1-40-53 were transfected into Ku-7-LG cells at the final concentrations of 0.1, 1, 10 and 50 nM, and the transfection duration was 48 hours. Two replicate wells were used for each treatment. After transfection, the cell cycle was analyzed by flow cytometry, and the collected data were analyzed by MotFit software.\nAfter transfection, the supernatant was discarded to collect cells. To each well 500 μL PBS was added for one wash and then discarded. To each well 100 μL trypsin was further added. 900 μL medium was added to stop digestion before transferring to a 1.5 mL centrifuge tube. All the cells were collected through centrifugation (400 rcf, 5 min) and counted (2×10^5 cells/200 μL PBS). Cold 70% absolute ethanol was added before incubation overnight at 4° C. After washing twice with PBS, 200 μL Krishan buffer was added before incubation at 4° C. for 1 hour. After washing twice with PBS, the supernatant was discarded and 200 μL PBS was added for cell re-suspension, then the cells were transferred to a 96-well plate and analyzed by flow cytometer. The collected data were analyzed with MotFit software.\nIn order to study the mechanism of cellular proliferation suppression, change in cell cycle was analyzed using flow cytometry in this example. Randomly selected saRNAs RAG1-40-31 and RAG1-40-53 were transfected into Ku-7-LG cells at final concentrations of 0.1, 1, 10 and 50 nM, respectively, for 48 hours. Each treatment was set in duplicate. Cell cycle was detected and analyzed as described in the general protocol above."}, "[3]": {"tested_on": "p21 gene", "test": "p21 mRNA expression by RT-qPCR in T24 cells", "assay_type": "cell-based, human", "settings": "10 nM", "procedure": "as §1, §2, §3, §4, §5, §6, §7, §8, §9"}, "[4]": {"biological_target": "T1, RNase A (Bos taurus, UniProt P61823)", "T1 sequence (P61823 27-150)": "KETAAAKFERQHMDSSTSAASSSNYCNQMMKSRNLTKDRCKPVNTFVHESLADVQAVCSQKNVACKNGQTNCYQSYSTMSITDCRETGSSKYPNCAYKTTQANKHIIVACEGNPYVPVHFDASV"}},
  "data": [
    {"substance": "RAG1-40-31: saRNA duplex: sense fCfCAACUCAUUCUCCAAG*U*C (SEQ ID NO 16); antisense U*A*fCfUfUGGAGAAfUGAGfUfUGG*fC*A (SEQ ID NO 12) (sense CCAACUCAUUCUCCAAGUC; antisense UACUUGGAGAAUGAGUUGGCA; 2'-F and phosphorothioate modifications; modified_base (1)..(2) (1,2)=2′-fluoro; modified_base (17)..(19) (17,18,19)=phosphorothioate (PS) backbone modification; modified_base (2)..(21) (2,3,19,20,21)=phosphorothioate (PS) backbone modification; modified_base (3)..(20) (3,4,5,12,16,17,20)=2′-fluoro)", "values": [
      {"measurement": "increase of expression level of p21 mRNA compared with the control group", "setting": "[1]; 1 day", "value": 1.3, "unit": "fold"},
      {"measurement": "increase of expression level of p21 mRNA compared with the control group", "setting": "[1]; 2 days", "value": 11.4, "unit": "fold"},
      {"measurement": "increase of expression level of p21 mRNA compared with the control group", "setting": "[1]; 3 days", "value": 8.7, "unit": "fold"},
      {"measurement": "increase of expression level of p21 mRNA compared with the control group", "setting": "[1]; 4 days", "value": 6.1, "unit": "fold"},
      {"measurement": "increase of expression level of p21 mRNA compared with the control group", "setting": "[1]; 7 days", "value": 2.6, "unit": "fold"},
      {"measurement": "increase of expression level of p21 mRNA compared with the control group", "setting": "[1]; 9 days", "value": 3.8, "unit": "fold"},
      {"measurement": "percentage of cells in DNA anaphase/mitosis (G2/M)", "setting": "[2]; 0.1 nM", "value": 6, "unit": "%"},
      {"measurement": "percentage of cells in DNA replication phase (S phase)", "setting": "[2]; 0.1 nM", "value": 32, "unit": "%"},
      {"measurement": "percentage of cells in prophase of DNA synthesis (G0/G1)", "setting": "[2]; 0.1 nM", "value": 62, "unit": "%"},
      {"measurement": "percentage of cells in DNA anaphase/mitosis (G2/M)", "setting": "[2]; 1 nM", "value": 9, "unit": "%"},
      {"measurement": "percentage of cells in DNA replication phase (S phase)", "setting": "[2]; 1 nM", "value": 22, "unit": "%"},
      {"measurement": "percentage of cells in prophase of DNA synthesis (G0/G1)", "setting": "[2]; 1 nM", "value": 69, "unit": "%"},
      {"measurement": "percentage of cells in DNA anaphase/mitosis (G2/M)", "setting": "[2]; 10 nM", "value": 8, "unit": "%"},
      {"measurement": "percentage of cells in DNA replication phase (S phase)", "setting": "[2]; 10 nM", "value": 11, "unit": "%"},
      {"measurement": "percentage of cells in prophase of DNA synthesis (G0/G1)", "setting": "[2]; 10 nM", "value": 81, "unit": "%"},
      {"measurement": "percentage of cells in DNA anaphase/mitosis (G2/M)", "setting": "[2]; 50 nM", "value": 13, "unit": "%"},
      {"measurement": "percentage of cells in DNA replication phase (S phase)", "setting": "[2]; 50 nM", "value": 6, "unit": "%"},
      {"measurement": "percentage of cells in prophase of DNA synthesis (G0/G1)", "setting": "[2]; 50 nM", "value": 81, "unit": "%"},
      {"measurement": "increase of expression level of p21 mRNA compared with the control group", "setting": "[3]; 1 day", "value": 2.1, "unit": "fold"},
      {"measurement": "increase of expression level of p21 mRNA compared with the control group", "setting": "[3]; 2 days", "value": 3.7, "unit": "fold"},
      {"measurement": "increase of expression level of p21 mRNA compared with the control group", "setting": "[3]; 3 days", "value": 4.7, "unit": "fold"},
      {"measurement": "RNA activation activity (p21 mRNA), in words", "setting": "[3]; 72 hours, compared with unmodified Rag1-40 unless worded otherwise", "value": "reduced activity"},
      {"measurement": "increase of expression level of p21 mRNA compared with the control group", "setting": "[3]; 4 days", "value": 3.3, "unit": "fold"},
      {"measurement": "increase of expression level of p21 mRNA compared with the control group", "setting": "[3]; 7 days", "value": 1.2, "unit": "fold"},
      {"measurement": "increase of expression level of p21 mRNA compared with the control group", "setting": "[3]; 9 days", "value": 1.3, "unit": "fold"},
      {"measurement": "degradation of duplex at 96 hours", "setting": "[4]", "value": "little or no signs of degradation"}
    ]}
  ]
}
